Experimental data: ChEMBL document CHEMBL1938230, “6-Position optimization of tricyclic 4-quinolone-based inhibitors of glycogen synthase kinase-3β: discovery of nitrile derivatives with picomolar potency” (Bioorg Med Chem Lett, 2012)

Key:
Format in all cases: cell-free
[1] = target: T1, Inhibitor of nuclear factor kappa-B kinase subunit epsilon (Homo sapiens) (UniProt Q14164); assay: Inhibition of human IKKepsilon in HL-60 cells lysate assessed as reduction of labeling of acyl-phosphate ATP probe at 100 nM
T1 sequence (whole entry): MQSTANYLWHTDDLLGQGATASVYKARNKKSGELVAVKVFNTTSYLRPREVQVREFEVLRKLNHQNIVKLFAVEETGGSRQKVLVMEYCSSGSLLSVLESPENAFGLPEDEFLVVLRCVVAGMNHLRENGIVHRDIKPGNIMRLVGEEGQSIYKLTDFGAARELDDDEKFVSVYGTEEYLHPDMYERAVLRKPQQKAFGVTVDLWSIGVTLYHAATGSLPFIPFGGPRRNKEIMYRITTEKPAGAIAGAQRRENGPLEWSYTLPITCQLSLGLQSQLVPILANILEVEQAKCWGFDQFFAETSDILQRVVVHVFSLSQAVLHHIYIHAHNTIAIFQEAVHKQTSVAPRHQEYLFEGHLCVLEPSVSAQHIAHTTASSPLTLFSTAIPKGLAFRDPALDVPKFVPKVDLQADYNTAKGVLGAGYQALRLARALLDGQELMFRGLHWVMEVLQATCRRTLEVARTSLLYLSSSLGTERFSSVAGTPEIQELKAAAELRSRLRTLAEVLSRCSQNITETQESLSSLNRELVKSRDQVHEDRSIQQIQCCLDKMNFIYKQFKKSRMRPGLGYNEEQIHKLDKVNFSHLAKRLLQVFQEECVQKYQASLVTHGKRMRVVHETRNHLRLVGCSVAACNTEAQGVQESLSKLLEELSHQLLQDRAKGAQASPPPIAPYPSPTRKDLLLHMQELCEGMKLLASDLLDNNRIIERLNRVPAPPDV

[2] = target: T2, Serine/threonine-protein kinase TAO2 (Homo sapiens) (UniProt Q9UL54); assay: Inhibition of human TAO2 in HL-60 cells lysate assessed as reduction of labeling of acyl-phosphate ATP probe at 100 nM
T2 sequence (whole entry): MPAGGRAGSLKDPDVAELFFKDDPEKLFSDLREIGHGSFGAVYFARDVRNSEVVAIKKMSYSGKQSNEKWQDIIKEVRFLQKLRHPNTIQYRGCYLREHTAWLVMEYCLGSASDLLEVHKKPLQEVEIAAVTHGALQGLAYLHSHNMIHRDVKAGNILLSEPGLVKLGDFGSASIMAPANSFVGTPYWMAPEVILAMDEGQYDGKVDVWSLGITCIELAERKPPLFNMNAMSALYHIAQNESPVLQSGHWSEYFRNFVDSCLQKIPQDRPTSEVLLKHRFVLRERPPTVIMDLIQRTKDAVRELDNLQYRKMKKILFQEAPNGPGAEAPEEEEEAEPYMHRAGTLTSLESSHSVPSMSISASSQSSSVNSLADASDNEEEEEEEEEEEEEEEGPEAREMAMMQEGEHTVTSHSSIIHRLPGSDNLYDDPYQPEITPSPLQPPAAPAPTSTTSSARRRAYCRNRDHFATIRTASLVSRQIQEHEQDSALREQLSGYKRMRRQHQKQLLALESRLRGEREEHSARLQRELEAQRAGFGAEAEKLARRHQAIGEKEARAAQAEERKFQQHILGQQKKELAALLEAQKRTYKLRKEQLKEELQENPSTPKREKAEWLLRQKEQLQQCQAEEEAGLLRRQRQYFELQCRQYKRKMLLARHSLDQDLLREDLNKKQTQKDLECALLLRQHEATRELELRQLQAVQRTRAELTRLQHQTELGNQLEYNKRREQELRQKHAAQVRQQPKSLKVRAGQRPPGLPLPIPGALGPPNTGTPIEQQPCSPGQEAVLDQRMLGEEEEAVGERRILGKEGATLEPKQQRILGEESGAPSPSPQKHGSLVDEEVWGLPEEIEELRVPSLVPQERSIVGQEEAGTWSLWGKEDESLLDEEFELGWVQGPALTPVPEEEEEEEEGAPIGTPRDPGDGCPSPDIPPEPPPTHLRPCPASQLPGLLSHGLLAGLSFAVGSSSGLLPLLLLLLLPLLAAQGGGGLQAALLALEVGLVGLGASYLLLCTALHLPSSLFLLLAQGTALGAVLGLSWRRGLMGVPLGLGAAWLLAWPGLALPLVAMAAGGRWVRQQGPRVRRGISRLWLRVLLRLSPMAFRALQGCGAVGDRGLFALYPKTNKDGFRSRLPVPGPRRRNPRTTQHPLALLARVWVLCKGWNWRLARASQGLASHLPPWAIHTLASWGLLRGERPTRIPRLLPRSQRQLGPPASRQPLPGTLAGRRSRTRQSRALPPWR

[3] = target: Mitogen-activated protein kinase kinase kinase kinase 5 (Homo sapiens) (UniProt Q9Y4K4); assay: Inhibition of human KHS1 in HL-60 cells lysate assessed as reduction of labeling of acyl-phosphate ATP probe at 100 nM

Measured: inhibition

Sequence of Mitogen-activated protein kinase kinase kinase kinase 5 (Homo sapiens) (Q9Y4K4 whole entry, looked up): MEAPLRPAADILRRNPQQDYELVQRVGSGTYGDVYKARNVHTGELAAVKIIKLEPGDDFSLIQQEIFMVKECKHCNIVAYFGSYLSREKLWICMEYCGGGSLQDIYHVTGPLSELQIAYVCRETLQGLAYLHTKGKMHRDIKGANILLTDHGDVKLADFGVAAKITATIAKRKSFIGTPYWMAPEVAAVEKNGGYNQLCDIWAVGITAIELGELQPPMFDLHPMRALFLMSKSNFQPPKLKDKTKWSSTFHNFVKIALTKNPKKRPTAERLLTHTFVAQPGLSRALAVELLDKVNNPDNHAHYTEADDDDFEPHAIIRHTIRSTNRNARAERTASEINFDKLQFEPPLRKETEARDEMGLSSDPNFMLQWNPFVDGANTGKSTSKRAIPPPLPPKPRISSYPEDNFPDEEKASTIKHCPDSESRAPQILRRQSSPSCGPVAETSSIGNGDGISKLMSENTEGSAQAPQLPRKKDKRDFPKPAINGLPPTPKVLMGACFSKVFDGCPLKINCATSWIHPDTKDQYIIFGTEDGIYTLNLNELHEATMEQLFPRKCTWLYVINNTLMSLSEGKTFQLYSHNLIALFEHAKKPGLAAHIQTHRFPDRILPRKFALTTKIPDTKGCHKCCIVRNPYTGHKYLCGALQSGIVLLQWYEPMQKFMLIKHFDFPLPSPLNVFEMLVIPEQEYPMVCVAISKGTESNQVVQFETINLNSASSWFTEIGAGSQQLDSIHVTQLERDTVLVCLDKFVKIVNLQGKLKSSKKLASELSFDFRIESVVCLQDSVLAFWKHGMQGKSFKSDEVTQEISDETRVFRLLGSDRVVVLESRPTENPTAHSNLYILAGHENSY

C[C@H]1COc2c(NCCCn3cccn3)c(F)c(N)c3c(=O)c(C#N)cn1c23
< 35%: all assays above

C[C@H]1COc2c(NCCCc3ccccn3)c(F)c(N)c3c(=O)c(C(=O)O)cn1c23
< 35%: all assays above

C[C@H]1COc2c(NCCCn3cccn3)c(F)c(N)c3c(=O)c(C(=O)O)cn1c23
< 35%: all assays above

C[C@H]1COc2c(NCCCc3ccccn3)c(F)c(N)c3c(=O)c(C#N)cn1c23
< 35%: all assays above
